According to PubChem BioAssay (NCI):
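Exposure lasted 48 hours, with cells grown in 96-well plates and compounds tested at five concentrations. Abbreviation: GI50, concentration required for 50% inhibition of growth. TGI is the concentration that stops growth completely.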

Tests used:
Assay in all cases: inhibition of tumour cell growth, NCI panel, 48 h
HCT-15 colon = tested on: HCT-15 colon
SK-MEL-5 melanoma = tested on: SK-MEL-5 melanoma
UACC-257 melanoma = tested on: UACC-257 melanoma
K-562 leukemia = tested on: K-562 leukemia
MCF7 breast = tested on: MCF7 breast
SK-MEL-28 melanoma = tested on: SK-MEL-28 melanoma
DU-145 prostate = tested on: DU-145 prostate
HT29 colon = tested on: HT29 colon

| SMILES | TGI (HCT-15 colon) | TGI (SK-MEL-5 melanoma) | TGI (UACC-257 melanoma) | TGI (K-562 leukemia) | TGI (MCF7 breast) | TGI (SK-MEL-28 melanoma) | TGI (DU-145 prostate) | TGI (HT29 colon) | GI50 (HCT-15 colon) | GI50 (SK-MEL-5 melanoma) | GI50 (UACC-257 melanoma) | GI50 (K-562 leukemia) | GI50 (MCF7 breast) | GI50 (SK-MEL-28 melanoma) | GI50 (DU-145 prostate) | GI50 (HT29 colon) |
| --- | --- | --- | --- | --- | --- | --- | --- | --- | --- | --- | --- | --- | --- | --- | --- | --- |
| NNC(=O)C(O)C(O)C(O)CO (centres undefined) | > 100 µM | > 100 µM | > 100 µM | > 100 µM | > 100 µM | > 100 µM | > 100 µM | > 100 µM |  |  |  |  |  |  |  |  |
| C=C(c1ccc(OC)c(/C=C/C(=O)c2cc(OC)c(OC)c(OC)c2)c1)c1cc(OC)c(OC)c(OC)c1 | 2.79 µM | 2.5 µM | 5.11 µM | 10.7 µM | 4.03 µM | 3.45 µM | 3.11 µM | 3.15 µM | 0.552 µM | 1.18 µM | 1.63 µM | 0.922 µM | 0.44 µM | 1.52 µM | 1.32 µM | 0.628 µM |
| C[C@]12CC/C(=N\O)C[C@@H]1CC[C@@H]1[C@@H]2CC[C@]2(C)/C(=N/O)CC[C@@H]12 | > 100 µM | 53.9 µM | > 100 µM | > 100 µM | 98.8 µM | > 100 µM | > 100 µM | > 100 µM | 43.3 µM | 23.6 µM | 37.6 µM | 40.9 µM | 26.1 µM | > 100 µM | 80.7 µM | 42.7 µM |
| COc1ccc2c(c1)O/C(=C\c1ccc([N+](=O)[O-])o1)C2=O | 1.26 µM | 3.08 µM | 3.85 µM | 1.91 µM | 3.12 µM | 5.02 µM | 7.94 µM | 1.92 µM | 0.271 µM | 1.56 µM | 1.72 µM | 0.352 µM | 0.345 µM | 2.17 µM | 0.775 µM | 0.452 µM |
| N=C(N)c1ccc(CS(=O)(=O)F)cc1 | > 100 µM | > 100 µM | > 100 µM | > 100 µM | > 100 µM | > 100 µM | > 100 µM | > 100 µM | > 100 µM | > 100 µM | > 100 µM | > 100 µM | > 100 µM | > 100 µM | > 100 µM | > 100 µM |
| COc1ccc(C2CC(c3ccc4ccccc4c3)=NN2/C=C2\SC(=S)N(NC(=O)Cc3ccccc3Nc3c(Cl)cccc3Cl)C2=O)cc1 (centres undefined) | > 65.1 µM | > 36.9 µM | > 100 µM | > 100 µM | > 50.5 µM | > 50 µM | 27.1 µM | > 26.3 µM | 0.467 µM | 0.484 µM | 3.86 µM | 0.402 µM | 0.361 µM | 4.45 µM | 0.404 µM | 2.3 µM |
| CS(=O)(=O)c1nccc(-c2c(-c3cccc(OCc4ccccc4)c3)nc3sccn23)n1 | > 100 µM | 10 µM | 32.5 µM | > 100 µM | > 100 µM | > 100 µM | 3.31 µM | > 100 µM | 12 µM | 1.39 µM | 10.4 µM | 5.29 µM | 7.31 µM | 12.2 µM | 1.76 µM | > 41.2 µM |
